The values that follow come from ChEMBL document CHEMBL1681700, “Cytotoxic 3,6-bis((imidazolidinone)imino)acridines: synthesis, DNA binding and molecular modeling” (Bioorg Med Chem, 2011).

Structures are written as SMILES. The source made the active and inactive calls. The calls are words filed in the database; no cut-off is given here.

The subject of data set [1] is L1210. In words: Cytotoxicity against mouse L1210 cells after 72 hrs by MTT assay. The format is functional, cell-based. As to conditions: L1210, 72 h.
The species entered for data set [2] is Bos taurus. The experiment in a line: Inhibition of calf thymus topoisomerase 1-mediated supercoiled DNA relaxation at 5 uM after 45 mins by ethidium bromide staining agarose gel electrophoresis.
The species entered for data set [3] is Bos taurus. In words: Inhibition of calf thymus topoisomerase 1-mediated supercoiled DNA relaxation at 40 uM after 45 mins by ethidium bromide staining agarose gel electrophoresis.
For data set [4], the system named is Calf thymus DNA. The experiment in a line: Binding affinity to C:G base pair region of calf thymus DNA by UV-visible spectrophotometer. It counts as nucleic-acid assay. The following applies: Bos taurus.
Data set [5] concerns HL-60. The experiment in a line: Cytotoxicity against human HL60 cells after 48 hrs by trypan blue dye exclusion test. The format is functional, cell-based. The following applies: HL-60, 48 h.
The test system of data set [6] is Calf thymus DNA. The experiment in a line: Binding affinity to A:T base pair region of calf thymus DNA by UV-visible spectrophotometer. It counts as nucleic-acid assay. The following applies: Bos taurus.
Data set [7] deals with HL-60. In words: Cytotoxicity against human HL60 cells after 48 hrs by MTT assay. It counts as functional, cell-based. As to conditions: HL-60, 48 h.
Data set [8] has as its system L1210. In words: Cytotoxicity against mouse L1210 cells after 48 hrs by MTT assay. The format is functional, cell-based. As to conditions: L1210, 48 h.
The subject of data set [9] is Calf thymus DNA. In words: Binding affinity to calf thymus DNA at pH 7.4 by UV-visible spectrophotometer. The format is nucleic-acid assay. As to conditions: Bos taurus.
The subject of data set [10] is HL-60. In words: Cytotoxicity against human HL60 cells after 72 hrs by MTT assay. The following applies: HL-60, 72 h. It counts as functional, cell-based.
Data set [11] concerns L1210. In words: Cytotoxicity against mouse L1210 cells after 72 hrs by trypan blue dye exclusion test. The format is functional, cell-based. The following applies: L1210, 72 h.
For data set [12], the system named is HL-60. In words: Cytotoxicity against human HL60 cells after 72 hrs by trypan blue dye exclusion test. The format is functional, cell-based. The following applies: HL-60, 72 h.
The nature of data set [13]: Octanol-water partition coefficient, log P of the compound. It counts as physicochemical.
Another data set deals with U-937. The experiment in a line: Induction of apoptosis in human U937 cells assessed as DNA fragmentation at 122 uM after 18 hrs by ethidium bromide staining agarose gel electrophoresis. It counts as functional, cell-based.
Data set [14] concerns Calf thymus DNA. In words: Binding affinity to calf thymus DNA assessed as hypochromic effect by UV-visible spectrophotometer. The format is nucleic-acid assay. On the set-up: concentration or dose not given beside the values. The following applies: Bos taurus.
The subject of data set [15] is L1210. The experiment in a line: Cytotoxicity against mouse L1210 cells after 48 hrs by trypan blue dye exclusion test. The format is functional, cell-based. The following applies: L1210, 48 h.
Data set [16] concerns HL-60. In words: Antiproliferative activity against human HL60 cells assessed as cytostatic effect at 1 uM after 72 hrs. It counts as functional, cell-based.
Data set [17] deals with HL-60. The experiment in a line: Drug uptake in human HL60 cells assessed as drug accumulation in nucleus at 5 uM after 24 hrs by fluorescence analysis. The format is ADME, cell-based. The following applies: hl-60, 24 h.
The subject of data set [18] is HL-60. In words: Drug uptake in human HL60 cells assessed as drug accumulation at 5 uM after 140 mins by fluorescence analysis. It counts as ADME, cell-based. The following applies: hl-60, 140 min.
Data set [19] relates to HL-60. In words: Drug uptake in human HL60 cells assessed as drug distribution in plasmatic membrane and cytosol at 5 uM after 4 hrs by fluorescence analysis. As to conditions: hl-60, 4 h. The format is ADME, cell-based.
For data set [20], the system named is HL-60. The experiment in a line: Cytotoxicity against human HL60 cells at 3 to 10 uM after 72 hrs. It counts as functional, cell-based.

For `CCCCCN1C(=O)CN/C1=N\c1ccc2cc3ccc(/N=C4\NCC(=O)N4CCCCC)cc3nc2c1`, the IC50 in the data set with L1210 [1] worked out at 15.2 µM; in the data set with HL-60 [5] it was 5.31 µM; in the data set with HL-60 [7] it was 8.37 µM; in the data set with L1210 [8] it was 13.7 µM; in the data set with HL-60 [10], 8.59 µM; in the data set with L1210 [11], 15.7 µM. Moreover, the IC50 in the data set on HL-60 [12] worked out at 7.18 µM; in the data set on L1210 [15] it was 12.4 µM. The inhibition entry in the data set listed under Bos taurus [2] is “inactive”. In addition, the inhibition result in the data set filed under Bos taurus [3] was “Active”. The result in the data set with Calf thymus DNA [4] and in the data set with U-937 was Active. Further, the result in the data set on Calf thymus DNA [6] was inactive. In the data set on Calf thymus DNA [9], this molecule registered a K of 2.8 ×10⁵ /M. The same molecule came in with a logP in data set [13] of 4.99. In addition, in the data set with Calf thymus DNA [14], the Activity came out at 45%.

For the molecule `CCCCCCN1C(=O)CN/C1=N\c1ccc2cc3ccc(/N=C4\NCC(=O)N4CCCCCC)cc3nc2c1.Cl`, the 50% inhibitory concentration (IC50) with L1210 [1] was determined as 5.99 µM; with HL-60 [5], 2.44 µM; in the data set on HL-60 [7] it was 4.61 µM; in the data set with L1210 [8] it was 5.52 µM; in the data set on HL-60 [10], 4.94 µM; with L1210 [11], 5.28 µM. Besides, the figures for the half-maximal inhibitory concentration (IC50) with HL-60 [12] and with L1210 [15] were 2.12 µM and 4.31 µM, respectively. Moreover, the inhibition result in the data set listed under Bos taurus [2] was “inactive”. Besides, the inhibition result in the data set filed under Bos taurus [3] was “Active”. Further, the outcome in the data set on Calf thymus DNA [4], with HL-60 [16] and with U-937 was Active. The outcome in the data set on Calf thymus DNA [6] was inactive. Further, the Drug uptake result in the data set on HL-60 [17], in the data set on HL-60 [18] and with HL-60 [19] was “Active” throughout. Further, the K with Calf thymus DNA [9] was determined as 1.9 ×10⁵ /M. Besides, the results for the Activity result in the data set with HL-60 [20] and with Calf thymus DNA [14] were “Toxic” and 47%, respectively. The molecule also came in with a logP in data set [13] of 5.88.

For the molecule `CCN1C(=O)CN/C1=N\c1ccc2cc3ccc(/N=C4\NCC(=O)N4CC)cc3nc2c1`, the IC50 was more than 100 µM in the data set with L1210 [1]; 83.8 µM with HL-60 [5]; 76.6 µM in the data set on HL-60 [7]; more than 100 µM in the data set with L1210 [8]; 80.3 µM in the data set with HL-60 [10]; more than 100 µM with L1210 [11]. Also, the IC50 in the data set with HL-60 [12] is 85.2 µM; with L1210 [15] it was 91.7 µM. Moreover, in the data set filed under Bos taurus [2], the inhibition entry was “inactive”. Also, the inhibition result in the data set listed under Bos taurus [3] is “Active”. The outcome in the data set with Calf thymus DNA [4] and in the data set with U-937 was Active. Also, in the data set with Calf thymus DNA [6], the outcome was inactive. The molecule further showed a K in the data set on Calf thymus DNA [9] of 7.1 ×10⁵ /M. In data set [13], the logP came to 2.17. Also, the Activity in the data set with Calf thymus DNA [14] was determined as 34%.

For `CCCN1C(=O)CN/C1=N\c1ccc2cc3ccc(/N=C4\NCC(=O)N4CCC)cc3nc2c1.Cl`, the IC50 in the data set on L1210 [1] stood at 68 µM; with HL-60 [5], 70.6 µM; in the data set on HL-60 [7] it was 74.1 µM; in the data set on L1210 [8], 45.8 µM; with HL-60 [10] it was 95.7 µM; with L1210 [11] it was 65.4 µM. The IC50 in the data set with HL-60 [12] was 88.6 µM; with L1210 [15] it was 44.7 µM. Also, the inhibition result in the data set listed under Bos taurus [2] is “inactive”. The inhibition result in the data set filed under Bos taurus [3] was “Active”. Moreover, the outcome with Calf thymus DNA [4] and in the data set with U-937 was Active. Besides, the outcome with Calf thymus DNA [6] was inactive. In addition, the results for the Drug uptake entry in the data set with HL-60 [17], in the data set on HL-60 [18] and with HL-60 [19] were “Not Active”, “Not Active” and “Active”, respectively. Further, in the data set on Calf thymus DNA [9], the K was found to be 5.7 ×10⁵ /M. Moreover, in data set [13], the logP was determined as 3.21. Moreover, the Activity in the data set with Calf thymus DNA [14] stood at 54%.

With `CCCCN1C(=O)CN/C1=N\c1ccc2cc3ccc(/N=C4\NCC(=O)N4CCCC)cc3nc2c1`, the IC50 in the data set with L1210 [1] was found to be 26.1 µM; in the data set on HL-60 [5] it was 11.7 µM; in the data set with HL-60 [7], 13.7 µM; in the data set on L1210 [8], 29.2 µM; in the data set with HL-60 [10] it was 16.4 µM; in the data set on L1210 [11], 27.3 µM. Moreover, the IC50 turned out to be 14.7 µM in the data set on HL-60 [12] and 26.4 µM in the data set on L1210 [15]. In the data set filed under Bos taurus [2], the inhibition entry was “inactive”. Further, the inhibition result in the data set filed under Bos taurus [3] was “Active”. Moreover, the result with Calf thymus DNA [4] and in the data set with U-937 was Active. In addition, the outcome in the data set on Calf thymus DNA [6] was inactive. Besides, the K in the data set with Calf thymus DNA [9] was determined as 4.2 ×10⁵ /M. In [13], this molecule displayed a logP of 4.1. In addition, the Activity in the data set on Calf thymus DNA [14] amounted to 50%.
